Read-outs that look alike come from different tables or passages of the source.
Key:
Type in all cases: cell-based
KAS-6/1 = assay: IC50 of multiple myeloma drugs alone and with IC20 SNS01-T, KAS-6/1; details: for fold less IC50 with IC20 SNS01-T: KAS-6/1, with versus without IC20 SNS01-T
U266 = assay: IC50 of multiple myeloma drugs alone and with IC20 SNS01-T, U266; details: for IC50: Homo sapiens, U-266; for fold less IC50 with IC20 SNS01-T: U266, with versus without IC20 SNS01-T
RPMI-8226 = assay: IC50 of multiple myeloma drugs alone and with IC20 SNS01-T, RPMI-8226; details: for IC50: Homo sapiens; for fold less IC50 with IC20 SNS01-T: RPMI-8226, with versus without IC20 SNS01-T
[1] = KAS-6/1, drug alone, read-out: IC50
[2] = KAS-6/1, with IC20 SNS01-T, read-out: IC50 with IC20 SNS01-T
[3] = U266, drug alone, read-out: IC50
[4] = U266, with IC20 SNS01-T, read-out: IC50 with IC20 SNS01-T
[5] = RPMI-8226, drug alone, read-out: IC50
[6] = RPMI-8226, with IC20 SNS01-T, read-out: IC50 with IC20 SNS01-T

IC50 (KAS-6/1; [1])	IC50 (KAS-6/1; [2])	fold less IC50 with IC20 SNS01-T (KAS-6/1)	IC50 (U266; [3])	IC50 (U266; [4])	fold less IC50 with IC20 SNS01-T (U266)	IC50 (RPMI-8226; [5])	IC50 (RPMI-8226; [6])	fold less IC50 with IC20 SNS01-T (RPMI-8226)	SMILES
7.31 nM	2.64 nM	~2.8 ×	2.86 nM	0.83 nM	~3.4 ×	2.12 nM	1.51 nM	~1.4 ×	CC(C)C[C@H](NC(=O)[C@H](Cc1ccccc1)NC(=O)c1cnccn1)B(O)O [Bortezomib, bortezomib]
69800 nM	2370 nM	~29 ×	62000 nM	1420 nM	~43.7 ×	84900 nM	3280 nM	25.9 ×	Nc1cccc2c1CN(C1CCC(=O)NC1=O)C2=O (stereo not drawn) [Lenalidomide, lenalidomide]

Source: US20140314704A1, “Treatment of B Cell Lymphomas” (Senesco Technologies, Inc., priority 2011, published 2014)
